How the values were obtained:
velvetleaf = test: Test C pre-/postemergence herbicide test; assay type: in vivo, Abutilon theophrasti; settings: for Velvetleaf plant response rating: 500 g ai/ha
Procedure, shortened: (§1)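 Pre/post spray; non-phytotoxic solvent + surfactant. Post-timing 1–4 leaves, 2–18 cm. Read-out: visual % control vs untreated, day 12–14, greenhouse.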

bermudagrass = test: Test C pre-/postemergence herbicide test; assay type: in vivo, Cynodon dactylon; settings: for Bermudagrass plant response rating: 500 g ai/ha
Procedure, shortened: as §1

pigweed = test: Test C pre-/postemergence herbicide test; assay type: in vivo, Amaranthus retroflexus; settings: for Pigweed plant response rating: 500 g ai/ha
Procedure, shortened: as §1

barnyardgrass = test: Test C flooded paddy test; assay type: in vivo, Echinochloa crus-galli; settings: for Plant response rating, Barnyardgrass: 500 g ai/ha, visual rating after 12 to 14 days
Procedure, shortened: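 Ratings (0 = no effect, 100 = complete control) come from visual comparison with untreated plants after 12 to 14 days in the greenhouse. Treatment was postemergence at the 1- to 4-leaf stage (2–18 cm), or at the 2-leaf stage for the flooded paddy barnyardgrass.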

[1] = system: smallflower umbrella sedge; test: Test C flooded paddy test; assay type: in vivo, Cyperus difformis; settings: for Plant response rating, Sedge, Umbrella: 500 g ai/ha, visual rating after 12 to 14 days
[2] = system: common (oilseed) sunflower; test: Test C pre-/postemergence herbicide test; assay type: in vivo, Helianthus annuus; settings: for Sunflower plant response rating: Preemergence, 500 g ai/ha, scale 0 to 100, 0 no effect, 100 complete control
Procedure, shortened: as §1

yellow nutsedge = test: Test C pre-/postemergence herbicide test; assay type: in vivo, Cyperus esculentus; settings: for Nutsedge, Yellow plant response rating: 500 g ai/ha
Procedure, shortened: as §1

morningglory = test: Test C pre-/postemergence herbicide test; assay type: in vivo, Ipomoea coccinea; design: key to Plant response rating, Morningglory: 0 = no effect, 100 = complete control; settings: for Morningglory plant response rating: Preemergence, 500 g ai/ha, scale 0 to 100, 0 no effect, 100 complete control
Procedure, shortened: as §1

soybean = test: Test C pre-/postemergence herbicide test; assay type: in vivo, Glycine max; settings: for Soybean plant response rating: 500 g ai/ha
Procedure, shortened: as §1

cocklebur = test: Test C pre-/postemergence herbicide test; assay type: in vivo, Xanthium strumarium; settings: for Cocklebur plant response rating: 500 g ai/ha
Procedure, shortened: as §1

giant foxtail = test: Test C pre-/postemergence herbicide test; assay type: in vivo, Setaria faberi; settings: for Foxtail, Giant plant response rating: 500 g ai/ha
Procedure, shortened: as §1

[3] = 125 g ai/ha, scale 0 (no effect) to 100 (complete control), visual, 12 to 14 days, preemergence
[4] = Postemergence, 250 g ai/ha, scale 0 to 100, 0 no effect, 100 complete control
[5] = Preemergence, scale 0 to 100, 0 no effect, 100 complete control
[6] = postemergence, 125 g ai/ha, scale 0 to 100
[7] = postemergence, 62 g ai/ha, scale 0 to 100
[8] = 250 g ai/ha, scale 0 to 100 (0 no effect, 100 complete control), visual, 12 to 14 days, preemergence
[9] = 62 g ai/ha, scale 0 to 100 (0 no effect, 100 complete control)
[10] = 125 g ai/ha, scale of 0 to 100, 0 is no effect, 100 is complete control
[11] = 250 g ai/ha, scale of 0 to 100, 0 is no effect, 100 is complete control
[12] = scale 0 to 100 (0 no effect, 100 complete control)
[13] = 62 g ai/ha, preemergence, scale 0 to 100

SMILES: CCn1nc(C(C)(C)C)cc1C(=O)Nc1cccc(C(C)=NO)c1 [Compound 108]
- Plant response rating, Velvetleaf (velvetleaf; [3]): 90
- Velvetleaf plant response rating (velvetleaf; Postemergence, scale 0 to 100): 90
- Plant response rating, Velvetleaf (velvetleaf; [4]): 80
- Velvetleaf plant response rating (velvetleaf; [5]): 100
- Plant response rating, Velvetleaf (velvetleaf; [6]): 60
- Plant response rating, Velvetleaf (velvetleaf; [7]): 40
- Plant response rating (0 = no effect, 100 = complete control), Bermudagrass (bermudagrass; 62 g ai/ha, preemergence): 100
- Plant response rating, Bermudagrass (bermudagrass; [3]): 100
- Plant response rating, Bermudagrass (bermudagrass; [8]): 100
- Bermudagrass plant response rating (bermudagrass; Postemergence, scale 0 to 100): 80
- Plant response rating, Bermudagrass (bermudagrass; [4]): 60
- Bermudagrass plant response rating (bermudagrass; [5]): 100
- Plant response rating, Bermudagrass (bermudagrass; [6]): 30
- Plant response rating, Bermudagrass (bermudagrass; [7]): 30
- Plant response rating (0 = no effect, 100 = complete control), Pigweed (pigweed; 62 g ai/ha, preemergence): 100
- Plant response rating, Pigweed (pigweed; [3]): 100
- Pigweed plant response rating (pigweed; Postemergence, scale 0 to 100): 100
- Plant response rating, Pigweed (pigweed; [4]): 100
- Pigweed plant response rating (pigweed; [5]): 100
- Plant response rating, Pigweed (pigweed; [6]): 100
- Plant response rating, Pigweed (pigweed; [7]): 60
- Barnyardgrass plant response rating (barnyardgrass; [9]): 30
- Barnyardgrass plant response rating (barnyardgrass; [10]): 40
- Barnyardgrass plant response rating (barnyardgrass; [11]): 60
- Plant response rating, Barnyardgrass (barnyardgrass; [12]): 70
- Sedge, Umbrella plant response rating [1, 9]: 60
- Sedge, Umbrella plant response rating [1, 10]: 80
- Sedge, Umbrella plant response rating [1, 11]: 80
- Plant response rating, Sedge, Umbrella [1, 12]: 80
- Plant response rating (0 = no effect, 100 = complete control), Sunflower ([2]; 62 g ai/ha, preemergence): 20
- Plant response rating, Sunflower [2, 3]: 20
- Sunflower plant response rating [2]: 20
- Plant response rating (0 = no effect, 100 = complete control), Nutsedge, Yellow (yellow nutsedge; 62 g ai/ha, preemergence): 50
- Plant response rating, Nutsedge, Yellow (yellow nutsedge; [3]): 70
- Nutsedge, Yellow plant response rating (yellow nutsedge; Postemergence, scale 0 to 100): 30
- Plant response rating, Nutsedge, Yellow (yellow nutsedge; [4]): 30
- Nutsedge, Yellow plant response rating (yellow nutsedge; [5]): 80
- Plant response rating, Nutsedge, Yellow (yellow nutsedge; [6]): 30
- Plant response rating, Nutsedge, Yellow (yellow nutsedge; [7]): 20
- Plant response rating (0 = no effect, 100 = complete control), Morningglory (morningglory; 62 g ai/ha, preemergence): 40
- Morningglory plant response rating (morningglory): 90
- Plant response rating, Morningglory (morningglory; [6]): 60
- Plant response rating, Morningglory (morningglory; [7]): 30
- Plant response rating, Soybean (soybean; [3]): 0
- Soybean plant response rating (soybean; Postemergence, scale 0 to 100): 60
- Plant response rating, Soybean (soybean; [4]): 60
- Soybean plant response rating (soybean; [5]): 10
- Plant response rating, Soybean (soybean; [6]): 60
- Plant response rating, Soybean (soybean; [7]): 50
- Plant response rating (0 = no effect, 100 = complete control), Cocklebur (cocklebur; 62 g ai/ha, preemergence): 20
- Plant response rating, Cocklebur (cocklebur; [3]): 30
- Plant response rating, Cocklebur (cocklebur; [8]): 30
- Cocklebur plant response rating (cocklebur; Postemergence, scale 0 to 100): 100
- Plant response rating, Cocklebur (cocklebur; [4]): 100
- Cocklebur plant response rating (cocklebur; [5]): 50
- Plant response rating, Cocklebur (cocklebur; [6]): 80
- Plant response rating, Cocklebur (cocklebur; [7]): 70
- Plant response rating (0 = no effect, 100 = complete control), Foxtail, Giant (giant foxtail; 62 g ai/ha, preemergence): 100
- Plant response rating, Foxtail, Giant (giant foxtail; [3]): 100
- Plant response rating, Foxtail, Giant (giant foxtail; [8]): 100
- Foxtail, Giant plant response rating (giant foxtail; Postemergence, scale 0 to 100): 70
- Foxtail, Giant plant response rating (giant foxtail; [5]): 100
- Plant response rating, Foxtail, Giant (giant foxtail; [6]): 50
- Plant response rating, Foxtail, Giant (giant foxtail; [7]): 30

SMILES: CCNC(=O)c1ccnc(NC(=O)c2cc(C(C)(C)C)nn2CC)c1 [Compound 152]
- Plant response rating, Velvetleaf (velvetleaf; [13]): 0
- Plant response rating, Velvetleaf (velvetleaf; [3]): 100
- Velvetleaf plant response rating (velvetleaf; [5]): 100
- Plant response rating, Bermudagrass (bermudagrass; 62 g ai/ha, preemergence, scale 0 to 100, 0 no effect, 100 complete control): 85
- Plant response rating, Bermudagrass (bermudagrass; [3]): 90
- Plant response rating, Bermudagrass (bermudagrass; [8]): 100
- Bermudagrass plant response rating (bermudagrass; [5]): 100
- Plant response rating, Pigweed (pigweed; [13]): 85
- Plant response rating, Pigweed (pigweed; [3]): 100
- Pigweed plant response rating (pigweed; [5]): 100
- Barnyardgrass plant response rating (barnyardgrass; [9]): 40
- Barnyardgrass plant response rating (barnyardgrass; [10]): 75
- Barnyardgrass plant response rating (barnyardgrass; [11]): 75
- Plant response rating, Barnyardgrass (barnyardgrass; [12]): 85
- Sedge, Umbrella plant response rating [1, 9]: 80
- Sedge, Umbrella plant response rating ([1]; 125 g ai/ha, scale 0 to 100 (0 no effect, 100 complete control)): 80
- Sedge, Umbrella plant response rating [1, 11]: 85
- Plant response rating, Sedge, Umbrella [1, 12]: 85
- Plant response rating, Sunflower [2, 13]: 0
- Plant response rating, Sunflower [2, 3]: 10
- Sunflower plant response rating [2]: 70
- Plant response rating, Nutsedge, Yellow (yellow nutsedge; [13]): 10
- Plant response rating, Nutsedge, Yellow (yellow nutsedge; [3]): 30
- Nutsedge, Yellow plant response rating (yellow nutsedge; [5]): 70
- Plant response rating, Morningglory (morningglory; [13]): 20
- Plant response rating, Morningglory (morningglory; [3]): 80
- Morningglory plant response rating (morningglory): 100
- Plant response rating, Soybean (soybean; [13]): 0
- Plant response rating, Soybean (soybean; [3]): 10
- Soybean plant response rating (soybean; [5]): 100
- Plant response rating, Cocklebur (cocklebur; [3]): 65
- Plant response rating, Cocklebur (cocklebur; [8]): 65
- Cocklebur plant response rating (cocklebur; [5]): 100
- Plant response rating, Foxtail, Giant (giant foxtail; [13]): 70
- Plant response rating, Foxtail, Giant (giant foxtail; [3]): 100
- Plant response rating, Foxtail, Giant (giant foxtail; [8]): 100
- Foxtail, Giant plant response rating (giant foxtail; [5]): 100
